# Key:
# Settings in all cases: competition binding
# [1] = biological target: T1, FLT3 (Homo sapiens, UniProt P36888); experiment: Competition binding assay, FLT3 Kd
# T1 construct: made in house
# T1 sequence (P36888 27-993): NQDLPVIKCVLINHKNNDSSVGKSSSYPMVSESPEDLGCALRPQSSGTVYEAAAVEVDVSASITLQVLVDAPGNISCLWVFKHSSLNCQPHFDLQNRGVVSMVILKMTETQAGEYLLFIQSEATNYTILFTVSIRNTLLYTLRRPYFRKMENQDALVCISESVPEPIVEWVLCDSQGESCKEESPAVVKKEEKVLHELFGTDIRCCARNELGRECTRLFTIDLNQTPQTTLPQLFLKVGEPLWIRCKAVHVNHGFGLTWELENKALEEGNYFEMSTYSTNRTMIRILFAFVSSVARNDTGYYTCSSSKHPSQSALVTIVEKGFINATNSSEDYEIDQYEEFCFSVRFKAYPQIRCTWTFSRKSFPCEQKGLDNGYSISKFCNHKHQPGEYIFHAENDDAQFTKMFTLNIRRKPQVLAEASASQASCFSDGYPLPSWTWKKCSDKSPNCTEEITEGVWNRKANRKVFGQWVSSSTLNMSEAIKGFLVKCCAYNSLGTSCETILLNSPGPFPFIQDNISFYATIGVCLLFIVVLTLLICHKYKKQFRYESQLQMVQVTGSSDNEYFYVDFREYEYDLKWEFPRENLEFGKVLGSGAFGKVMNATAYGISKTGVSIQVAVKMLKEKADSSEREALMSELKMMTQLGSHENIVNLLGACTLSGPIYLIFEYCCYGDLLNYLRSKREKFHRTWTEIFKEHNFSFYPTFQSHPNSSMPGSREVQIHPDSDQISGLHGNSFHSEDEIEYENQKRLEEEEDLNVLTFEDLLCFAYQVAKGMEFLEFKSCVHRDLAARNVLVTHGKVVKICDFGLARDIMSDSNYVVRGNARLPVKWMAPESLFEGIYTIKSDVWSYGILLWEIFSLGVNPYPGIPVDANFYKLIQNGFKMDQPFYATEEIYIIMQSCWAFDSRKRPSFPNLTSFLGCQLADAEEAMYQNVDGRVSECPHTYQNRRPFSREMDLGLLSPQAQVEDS
# How it was run: (§1)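 First, biotinylated affinity ligands were loaded onto streptavidin magnetic beads and blocked. Kinase, beads and compound were then equilibrated 1 hour at room temperature, washed, and eluted with non-biotinylated ligand. Eluted kinase was measured by qPCR, with Kd fitted from an eleven-point threefold dilution series.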
# [2] = biological target: T2, KIT (Homo sapiens, UniProt P10721); experiment: Competition binding assay, KIT Kd
# T2 construct: made in house
# T2 sequence (P10721 26-976): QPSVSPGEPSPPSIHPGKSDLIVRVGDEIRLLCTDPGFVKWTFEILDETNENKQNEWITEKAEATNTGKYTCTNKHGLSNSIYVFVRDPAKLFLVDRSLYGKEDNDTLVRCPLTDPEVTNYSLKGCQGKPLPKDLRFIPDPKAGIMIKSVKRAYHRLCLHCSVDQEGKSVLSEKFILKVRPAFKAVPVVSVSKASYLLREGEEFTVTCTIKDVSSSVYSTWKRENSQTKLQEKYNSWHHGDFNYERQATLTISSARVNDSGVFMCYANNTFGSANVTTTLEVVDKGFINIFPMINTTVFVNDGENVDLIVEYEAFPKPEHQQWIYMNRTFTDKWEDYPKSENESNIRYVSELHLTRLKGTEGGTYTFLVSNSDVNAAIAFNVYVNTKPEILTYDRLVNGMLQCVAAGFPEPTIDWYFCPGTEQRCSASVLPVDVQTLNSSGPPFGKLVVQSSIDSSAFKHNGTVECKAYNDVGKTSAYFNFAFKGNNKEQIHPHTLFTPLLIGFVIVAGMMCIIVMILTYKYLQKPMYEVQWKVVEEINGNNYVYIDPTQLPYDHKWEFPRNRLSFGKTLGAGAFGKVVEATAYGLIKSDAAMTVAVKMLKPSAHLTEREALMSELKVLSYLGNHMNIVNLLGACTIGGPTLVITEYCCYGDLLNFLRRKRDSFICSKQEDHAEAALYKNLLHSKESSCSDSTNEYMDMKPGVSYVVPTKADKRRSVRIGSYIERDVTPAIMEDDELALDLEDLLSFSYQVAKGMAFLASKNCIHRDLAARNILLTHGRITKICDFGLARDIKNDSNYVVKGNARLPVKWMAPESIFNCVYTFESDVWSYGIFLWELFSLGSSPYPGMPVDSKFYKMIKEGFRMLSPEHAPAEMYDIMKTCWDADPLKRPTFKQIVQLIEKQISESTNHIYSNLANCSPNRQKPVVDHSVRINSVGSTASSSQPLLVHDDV
# How it was run: as §1
# [3] = biological target: T3, PDGFRβ (Homo sapiens, UniProt P09619); experiment: Competition binding assay, PDGFRβ Kd
# T3 construct: made in house
# T3 sequence (P09619 33-1106): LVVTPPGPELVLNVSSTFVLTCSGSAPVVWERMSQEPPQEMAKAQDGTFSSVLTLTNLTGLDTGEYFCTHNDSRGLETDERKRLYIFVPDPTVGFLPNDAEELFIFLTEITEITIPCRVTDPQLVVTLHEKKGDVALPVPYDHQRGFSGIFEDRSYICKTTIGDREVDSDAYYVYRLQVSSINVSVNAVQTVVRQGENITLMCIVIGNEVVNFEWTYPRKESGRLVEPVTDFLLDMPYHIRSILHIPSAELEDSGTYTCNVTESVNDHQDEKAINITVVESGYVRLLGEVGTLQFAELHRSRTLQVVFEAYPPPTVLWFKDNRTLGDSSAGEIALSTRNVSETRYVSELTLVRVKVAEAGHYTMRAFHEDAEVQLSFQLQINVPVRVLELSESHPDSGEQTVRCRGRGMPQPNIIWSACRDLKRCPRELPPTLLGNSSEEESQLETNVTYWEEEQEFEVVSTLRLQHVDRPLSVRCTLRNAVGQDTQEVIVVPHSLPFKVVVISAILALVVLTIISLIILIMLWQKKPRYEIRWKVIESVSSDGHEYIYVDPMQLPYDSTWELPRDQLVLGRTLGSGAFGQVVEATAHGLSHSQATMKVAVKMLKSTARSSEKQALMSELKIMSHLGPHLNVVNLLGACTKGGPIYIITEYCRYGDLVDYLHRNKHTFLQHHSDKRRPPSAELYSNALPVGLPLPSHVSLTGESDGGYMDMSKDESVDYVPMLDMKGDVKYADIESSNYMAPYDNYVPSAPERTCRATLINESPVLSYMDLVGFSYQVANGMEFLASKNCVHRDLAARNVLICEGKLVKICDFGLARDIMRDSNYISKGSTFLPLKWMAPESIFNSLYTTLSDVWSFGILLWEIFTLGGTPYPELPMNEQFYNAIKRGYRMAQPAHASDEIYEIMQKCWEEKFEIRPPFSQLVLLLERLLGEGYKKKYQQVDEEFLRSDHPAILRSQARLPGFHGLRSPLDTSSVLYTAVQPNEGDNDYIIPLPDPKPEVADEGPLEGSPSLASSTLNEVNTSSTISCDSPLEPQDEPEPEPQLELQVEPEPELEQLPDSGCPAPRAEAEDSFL
# How it was run: as §1
Structure (SMILES),Kd [1],Kd [2],Kd [3]
"CC(C)(O)C#Cc1cnc2c(c1)ncn2Cc1ccc2nc(N[C@@H]3CCCC[C@H]3O)sc2c1 [Example 104, (1R,2R)-2-((6-((6-(3-hydroxy-3-methylbut-1-yn-1-yl)-3H-imidazo[4,5-b]pyridin-3-yl)methyl)benzo[d]thiazol-2-yl)amino)cyclohexanol]",≤ 200 nM,≤ 100 nM,≤ 50 nM
"O[C@@H]1CCCC[C@H]1Nc1nc2ccc(Cn3cnc4cnc(C(F)(F)F)nc43)cc2s1 [Example 105, (1R,2R)-2-((6-((2-(trifluoromethyl)-9H-purin-9-yl)methyl)benzo[d]thiazol-2-yl)amino)cyclohexanol]",200 to 1000 nM,500 to 2000 nM,500 to 2000 nM
"O[C@@H]1CCCC[C@H]1Nc1nc2ccc(Cc3cnc4ccc(Br)nn34)cc2s1 [Example 177, (1R,2R)-2-((6-((6-bromoimidazo[1,2-b]pyridazin-3-yl)methyl)benzo[d]thiazol-2-yl)amino)cyclohexanol]",≤ 200 nM,≤ 100 nM,≤ 50 nM
"CN1CCN(c2ccc3ncc(Cc4ccc5nc(N[C@@H]6CCCC[C@H]6O)sc5c4)n3n2)CC1 [Example 178, (1R,2R)-2-((6-((6-(4-methylpiperazin-1-yl)imidazo[1,2-b]pyridazin-3-yl)methyl)benzo[d]thiazol-2-yl)amino)cyclohexanol]",200 to 1000 nM,500 to 2000 nM,500 to 2000 nM
"OC[C@H]1CC[C@H](Nc2nc3ccc(Cn4cnc5cc(F)cnc54)cc3s2)CC1 [Example 179, (trans-4-((6-((6-fluoro-3H-imidazo[4,5-b]pyridin-3-yl)methyl)benzo[d]thiazol-2-yl)amino)cyclohexyl)methanol]",1000 to 5000 nM,≤ 100 nM,≤ 50 nM
"OC[C@H]1CC[C@@H](Nc2nc3ccc(Cn4cnc5cc(F)cnc54)cc3s2)CC1 [Example 180, (cis-4-((6-((6-fluoro-3H-imidazo[4,5-b]pyridin-3-yl)methyl)benzo[d]thiazol-2-yl)amino)cyclohexyl)methanol]",1000 to 5000 nM,100 to 500 nM,50 to 500 nM
"CS[C@@H]1CCCC[C@H]1Nc1nc2ccc(Cn3cnc4cc(F)cnc43)cc2s1 [Example 181, 6-((6-fluoro-3H-imidazo[4,5-b]pyridin-3-yl)methyl)-N-((1R,2R)-2-(methylthio)cyclohexyl)benzo[d]thiazol-2-amine]",1000 to 5000 nM,100 to 500 nM,≤ 50 nM
"O[C@@H]1CCCC[C@H]1Nc1nc2ccc(Cn3cnc4cc(OC5COC5)ccc43)cc2s1 [Example 182, (1R,2R)-2-((6-((5-(oxetan-3-yloxy)-1H-benzo[d]imidazol-1-yl)methyl)benzo[d]thiazol-2-yl)amino)cyclohexanol]",200 to 1000 nM,100 to 500 nM,50 to 500 nM
"C=Cc1ccc2c(c1)ncn2Cc1ccc2nc(N[C@@H]3CCCC[C@H]3O)sc2c1 [Example 183, (1R,2R)-2-((6-((5-vinyl-1H-benzo[d]imidazol-1-yl)methyl)benzo[d]thiazol-2-yl)amino)cyclohexanol]",200 to 1000 nM,≤ 100 nM,50 to 500 nM
"O[C@@H]1CCCC[C@H]1Nc1nc2ccc(Cn3cnc4cc(C5=CCCCC5)ccc43)cc2s1 [Example 184, (1R,2R)-2-((6-((5-(cyclohex-1-en-1-yl)-1H-benzo[d]imidazol-1-yl)methyl)benzo[d]thiazol-2-yl)amino)cyclohexanol]",200 to 1000 nM,≤ 100 nM,50 to 500 nM
"Cn1cc(-c2ccc3c(c2)ncn3Cc2ccc3nc(N[C@@H]4CCCC[C@H]4O)sc3c2)c(C(F)(F)F)n1 [Example 185, (1R,2R)-2-((6-((5-(1-methyl-3-(trifluoromethyl)-1H-pyrazol-4-yl)-1H-benzo[d]imidazol-1-yl)methyl)benzo[d]thiazol-2-yl)amino)cyclohexanol]",≤ 200 nM,≤ 100 nM,≤ 50 nM
"O[C@@H]1CCCC[C@H]1Nc1nc2ccc(Cc3cnc4cccc(F)n34)cc2s1 [Example 186, (1R,2R)-2-((6-((5-fluoroimidazo[1,2-a]pyridin-3-yl)methyl)benzo[d]thiazol-2-yl)amino)cyclohexanol]",≤ 200 nM,100 to 500 nM,50 to 500 nM
"O[C@@H]1CCCC[C@H]1Nc1nc2ccc(Cc3cnc4cc(N5CCOCC5)ccn34)cc2s1 [Example 187, (1R,2R)-2-((6-((7-morpholinoimidazo[1,2-a]pyridin-3-yl)methyl)benzo[d]thiazol-2-yl)amino)cyclohexanol]",> 5000 nM,> 2000 nM,500 to 2000 nM
"CN1CCN(c2ccn3c(Cc4ccc5nc(N[C@@H]6CCCC[C@H]6O)sc5c4)cnc3c2)CC1 [Example 188, (1R,2R)-2-((6-((7-(4-methylpiperazin-1-yl)imidazo[1,2-a]pyridin-3-yl)methyl)benzo[d]thiazol-2-yl)amino)cyclohexanol]",1000 to 5000 nM,> 2000 nM,500 to 2000 nM
Cc1cc(C)c2c(c1)ncn2Cc1ccc2nc(N[C@@H]3CCCC[C@H]3O)sc2c1 [Example 189],200 to 1000 nM,500 to 2000 nM,500 to 2000 nM
"Cc1cc(Br)cc2ncn(Cc3ccc4nc(N[C@@H]5CCCC[C@H]5O)sc4c3)c12 [Example 190, (1R,2R)-2-((6-((5-bromo-7-methyl-1H-benzo[d]imidazol-1-yl)methyl)benzo[d]thiazol-2-yl)amino)cyclohexanol]",200 to 1000 nM,500 to 2000 nM,500 to 2000 nM
"Fc1cnc2c(c1)ncn2Cc1ccc2nc(Nc3ccccc3)sc2c1 [Example 191, 6-((6-fluoro-3H-imidazo[4,5-b]pyridin-3-yl)methyl)-N-phenylbenzo[d]thiazol-2-amine]",1000 to 5000 nM,100 to 500 nM,500 to 2000 nM
"OC[C@@H]1CCC[C@@H](Nc2nc3ccc(Cn4cnc5cc(F)cnc54)cc3s2)C1 [Example 192, ((1R,3R)-3-((6-((6-fluoro-3H-imidazo[4,5-b]pyridin-3-yl)methyl)benzo[d]thiazol-2-yl)amino)cyclohexyl)methanol]",1000 to 5000 nM,100 to 500 nM,≤ 50 nM
"O[C@@H]1[C@H](O)CCC[C@H]1Nc1nc2ccc(Cn3cnc4cc(F)cnc43)cc2s1 [Example 193, (1R,2S,3R)-3-((6-((6-fluoro-3H-imidazo[4,5-b]pyridin-3-yl)methyl)benzo[d]thiazol-2-yl)amino)cyclohexane-1,2-diol]",1000 to 5000 nM,≤ 100 nM,≤ 50 nM
"OC[C@H]1CCC[C@@H](Nc2nc3ccc(Cn4cnc5cc(F)cnc54)cc3s2)C1 [Example 194, ((1S,3R)-3-((6-((6-fluoro-3H-imidazo[4,5-b]pyridin-3-yl)methyl)benzo[d]thiazol-2-yl)amino)cyclohexyl)methanol]",200 to 1000 nM,≤ 100 nM,≤ 50 nM
"N#Cc1cc2ncn(Cc3ccc4nc(N[C@@H]5CCCC[C@H]5O)oc4c3)c2cc1Cl [Example 195, 6-chloro-1-((2-(((1R,2R)-2-hydroxycyclohexyl)amino)benzo[d]oxazol-6-yl)methyl)-1H-benzo[d]imidazole-5-carbonitrile]",1000 to 5000 nM,500 to 2000 nM,500 to 2000 nM

# — US9938261B2, “Heterocyclic compounds and methods of use thereof” (AMBIT BIOSCIENCES CORPORATION, priority 2011, dated 2018)
